Laboratory results taken from ChEMBL document CHEMBL1134183, “First tricyclic oximino derivatives as 5-HT3 ligands” (Bioorg Med Chem Lett, 2001).

Columns and labels:
[1] = target: Serotonin 3 (5-HT3) receptor; experiment: Binding affinity towards 5-hydroxytryptamine 3 receptor; format: protein-complex assay
[2] = target: T1, Serotonin 3 (5-HT3) receptor (Homo sapiens) (UniProt P46098+A5X5Y0+O95264+Q70Z44+Q8WXA8); experiment: Compound was tested for agonistic activity against 5-hydroxytryptamine 3 receptor on guinea pig colon at a concentration of 1 uM; format: functional, tissue-based; details: Cavia porcellus, target entry is the homologue from another species
[3] = target: T1, Serotonin 3 (5-HT3) receptor (Homo sapiens); experiment: Compound was tested for agonistic activity against 5-hydroxytryptamine 3 receptor on guinea pig colon at a concentration of 10 uM; format: functional, tissue-based; details: Cavia porcellus, target entry is the homologue from another species
[4] = target: T1, Serotonin 3 (5-HT3) receptor (Homo sapiens); experiment: Compound was tested for agonistic activity against 5-hydroxytryptamine 3 receptor on guinea pig colon at a concentration of 10 uM in the presence of 30 uM MDL 72222; format: functional, tissue-based; details: Cavia porcellus, target entry is the homologue from another species
[5] = target: T1, Serotonin 3 (5-HT3) receptor (Homo sapiens); experiment: Compound was tested for agonistic activity against 5-hydroxytryptamine 3 receptor on guinea pig colon at a concentration of 3 uM; format: functional, tissue-based; details: Cavia porcellus, target entry is the homologue from another species
[6] = target: Serotonin 3 (5-HT3) receptor; experiment: Compound was tested for agonistic activity against 5-HT uptake; format: functional
[7] = target: T2, 5-hydroxytryptamine receptor 1A (Homo sapiens, UniProt P08908); experiment: Compound was tested for binding affinity against 5-hydroxytryptamine 1A receptor
T2 sequence (P08908 whole entry): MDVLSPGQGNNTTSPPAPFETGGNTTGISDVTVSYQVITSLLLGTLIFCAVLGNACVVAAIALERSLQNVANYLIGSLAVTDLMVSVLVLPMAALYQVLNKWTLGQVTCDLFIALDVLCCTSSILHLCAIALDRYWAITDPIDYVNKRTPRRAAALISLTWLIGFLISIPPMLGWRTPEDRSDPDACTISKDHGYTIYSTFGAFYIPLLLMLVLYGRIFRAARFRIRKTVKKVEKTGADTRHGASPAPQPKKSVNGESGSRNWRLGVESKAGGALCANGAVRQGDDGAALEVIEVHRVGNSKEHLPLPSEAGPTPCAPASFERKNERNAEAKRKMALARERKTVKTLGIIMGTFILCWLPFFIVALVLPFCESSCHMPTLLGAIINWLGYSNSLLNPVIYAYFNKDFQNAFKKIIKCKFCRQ

[8] = target: 5-hydroxytryptamine receptor 1B (Homo sapiens, UniProt P28222); experiment: Compound was tested for binding affinity against 5-hydroxytryptamine 1B receptor
Chain of 5-hydroxytryptamine receptor 1B (P28222 whole entry): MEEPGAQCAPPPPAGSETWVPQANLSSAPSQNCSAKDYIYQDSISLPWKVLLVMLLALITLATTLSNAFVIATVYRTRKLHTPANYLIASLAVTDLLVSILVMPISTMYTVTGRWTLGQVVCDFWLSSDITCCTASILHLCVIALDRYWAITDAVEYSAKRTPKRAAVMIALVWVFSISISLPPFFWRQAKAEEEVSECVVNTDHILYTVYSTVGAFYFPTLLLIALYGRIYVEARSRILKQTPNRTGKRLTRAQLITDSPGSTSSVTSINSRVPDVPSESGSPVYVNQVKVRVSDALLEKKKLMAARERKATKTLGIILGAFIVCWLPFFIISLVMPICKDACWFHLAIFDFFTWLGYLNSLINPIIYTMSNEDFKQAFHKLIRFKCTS

[9] = target: Serotonin 2 (5-HT2) receptor (Homo sapiens, UniProt P41595+P28223+P28335); experiment: Compound was tested for binding affinity against 5-hydroxytryptamine 2 receptor; format: protein assay
[10] = target: T3, 5-hydroxytryptamine receptor 2C (Homo sapiens, UniProt P28335); experiment: Compound was tested for binding affinity against 5-hydroxytryptamine 2C receptor
T3 sequence (P28335 whole entry): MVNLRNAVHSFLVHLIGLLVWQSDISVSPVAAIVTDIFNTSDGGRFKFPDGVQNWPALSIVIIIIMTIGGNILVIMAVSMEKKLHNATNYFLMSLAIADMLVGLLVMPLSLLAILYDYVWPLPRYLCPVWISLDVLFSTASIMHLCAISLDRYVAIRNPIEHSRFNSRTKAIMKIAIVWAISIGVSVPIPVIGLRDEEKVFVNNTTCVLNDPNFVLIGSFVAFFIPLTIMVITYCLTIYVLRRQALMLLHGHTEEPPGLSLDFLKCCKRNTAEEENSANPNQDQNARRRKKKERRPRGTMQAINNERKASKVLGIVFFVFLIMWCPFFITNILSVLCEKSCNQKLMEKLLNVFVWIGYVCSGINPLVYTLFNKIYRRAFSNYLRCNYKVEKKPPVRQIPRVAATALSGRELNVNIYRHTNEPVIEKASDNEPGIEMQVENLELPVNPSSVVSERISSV

[11] = target: 5-hydroxytryptamine receptor 1D (Homo sapiens, UniProt P28221); experiment: Compound was tested for binding affinity against 5-hydroxytryptamine 1D receptor
Chain of 5-hydroxytryptamine receptor 1D (P28221 whole entry): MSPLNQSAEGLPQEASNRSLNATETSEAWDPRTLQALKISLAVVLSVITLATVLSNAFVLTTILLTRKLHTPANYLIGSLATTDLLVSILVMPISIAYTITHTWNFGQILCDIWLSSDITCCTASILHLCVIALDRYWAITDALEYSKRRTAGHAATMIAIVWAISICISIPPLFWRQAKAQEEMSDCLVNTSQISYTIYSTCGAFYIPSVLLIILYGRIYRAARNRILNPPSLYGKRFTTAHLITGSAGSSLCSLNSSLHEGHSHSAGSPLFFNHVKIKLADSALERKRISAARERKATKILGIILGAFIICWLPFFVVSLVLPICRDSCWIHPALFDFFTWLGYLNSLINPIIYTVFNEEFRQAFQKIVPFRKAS

[12] = target: T1, Serotonin 3 (5-HT3) receptor (Homo sapiens); experiment: Compound was tested for agonistic activity against 5-hydroxytryptamine 3 receptor on guinea colon at a concentration 0.01 uM; format: functional, tissue-based; details: Cavia porcellus, target entry is the homologue from another species
[13] = target: T1, Serotonin 3 (5-HT3) receptor (Homo sapiens); experiment: Percent of control response to 5-HT3 agonistic activity on guinea colon at a concentration 0.1 uM; format: functional, tissue-based; details: Cavia porcellus, target entry is the homologue from another species
[14] = target: T1, Serotonin 3 (5-HT3) receptor (Homo sapiens); experiment: Percent of control response to 5-HT3 agonistic activity on guinea colon at a concentration 1 uM; format: functional, tissue-based; details: Cavia porcellus, target entry is the homologue from another species
[15] = target: T1, Serotonin 3 (5-HT3) receptor (Homo sapiens); experiment: Percent of control response to 5-HT3 agonistic activity on guinea colon at a concentration 1 uM in the presence of 30 uM MDL 72222; format: functional, tissue-based; details: Cavia porcellus, target entry is the homologue from another species
[16] = target: T1, Serotonin 3 (5-HT3) receptor (Homo sapiens); experiment: Percent of control response to 5-HT3 antagonistic activity on guinea colon at a concentration 0.01 uM; format: functional, tissue-based; details: Cavia porcellus, target entry is the homologue from another species
[17] = target: T1, Serotonin 3 (5-HT3) receptor (Homo sapiens); experiment: Percent of control response to 5-HT3 antagonistic activity on guinea colon at a concentration 1 uM; format: functional, tissue-based; details: Cavia porcellus, target entry is the homologue from another species
[18] = target: T1, Serotonin 3 (5-HT3) receptor (Homo sapiens); experiment: Percent of control response to 5-HT3 agonistic activity on guinea colon at a concentration 0.01 uM; format: functional, tissue-based; details: Cavia porcellus, target entry is the homologue from another species
[19] = target: 5-hydroxytryptamine receptor 7 (Homo sapiens) (UniProt P34969); experiment: Percentage of displacement at 5-hydroxytryptamine 7 receptor at 10e-8 M
Chain of 5-hydroxytryptamine receptor 7 (Homo sapiens) (P34969 whole entry): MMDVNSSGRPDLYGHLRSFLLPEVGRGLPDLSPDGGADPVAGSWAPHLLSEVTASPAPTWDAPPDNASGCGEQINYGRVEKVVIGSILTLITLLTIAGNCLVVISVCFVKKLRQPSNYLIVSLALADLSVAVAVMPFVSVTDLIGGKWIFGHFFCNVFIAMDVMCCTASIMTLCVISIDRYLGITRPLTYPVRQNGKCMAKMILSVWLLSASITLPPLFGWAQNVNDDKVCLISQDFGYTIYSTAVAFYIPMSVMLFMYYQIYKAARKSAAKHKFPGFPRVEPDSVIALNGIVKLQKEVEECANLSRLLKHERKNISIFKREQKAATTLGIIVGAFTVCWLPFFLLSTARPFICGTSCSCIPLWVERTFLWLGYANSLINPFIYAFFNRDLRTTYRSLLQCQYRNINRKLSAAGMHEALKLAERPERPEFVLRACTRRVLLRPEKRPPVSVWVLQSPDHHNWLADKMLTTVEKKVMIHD

[20] = target: 5-hydroxytryptamine receptor 4 (Homo sapiens, UniProt Q13639); experiment: Compound was tested for agonistic activity against 5-hydroxytryptamine 4 receptor on guinea colon at a concentration 0.1 uM; format: functional, tissue-based
Chain of 5-hydroxytryptamine receptor 4 (Q13639 whole entry): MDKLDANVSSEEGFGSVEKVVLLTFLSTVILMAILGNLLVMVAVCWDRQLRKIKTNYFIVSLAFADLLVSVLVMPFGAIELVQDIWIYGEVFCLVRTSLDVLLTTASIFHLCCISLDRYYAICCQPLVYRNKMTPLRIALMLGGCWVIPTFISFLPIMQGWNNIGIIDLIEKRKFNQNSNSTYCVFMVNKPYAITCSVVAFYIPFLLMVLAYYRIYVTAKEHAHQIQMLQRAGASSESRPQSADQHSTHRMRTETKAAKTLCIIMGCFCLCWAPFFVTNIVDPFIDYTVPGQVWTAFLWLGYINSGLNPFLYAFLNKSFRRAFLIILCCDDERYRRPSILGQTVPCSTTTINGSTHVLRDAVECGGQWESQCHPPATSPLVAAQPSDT

[21] = target: Serotonin 3 (5-HT3) receptor; experiment: Compound was tested for binding affinity towards 5-hydroxytryptamine 3 receptor; format: protein-complex assay
[22] = target: 5-hydroxytryptamine receptor 6 (Homo sapiens) (UniProt P50406); experiment: Percentage of displacement at 5-hydroxytryptamine 6 receptor at 10e-8 M
Chain of 5-hydroxytryptamine receptor 6 (Homo sapiens) (P50406 whole entry): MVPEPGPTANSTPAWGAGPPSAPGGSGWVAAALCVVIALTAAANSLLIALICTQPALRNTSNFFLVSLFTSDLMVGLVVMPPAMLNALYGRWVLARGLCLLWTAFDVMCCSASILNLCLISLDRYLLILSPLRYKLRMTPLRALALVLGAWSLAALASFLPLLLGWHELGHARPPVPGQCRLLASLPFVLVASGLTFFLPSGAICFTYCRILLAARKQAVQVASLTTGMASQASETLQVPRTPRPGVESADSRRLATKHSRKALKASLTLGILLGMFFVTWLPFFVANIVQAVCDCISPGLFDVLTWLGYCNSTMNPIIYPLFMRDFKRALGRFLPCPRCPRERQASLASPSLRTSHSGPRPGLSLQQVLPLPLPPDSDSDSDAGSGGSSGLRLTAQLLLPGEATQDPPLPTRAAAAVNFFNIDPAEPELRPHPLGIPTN

[23] = target: Sodium-dependent dopamine transporter (Homo sapiens) (UniProt Q01959); experiment: Compound was tested for binding affinity against dopaminergic uptake
Chain of Sodium-dependent dopamine transporter (Homo sapiens) (Q01959 whole entry): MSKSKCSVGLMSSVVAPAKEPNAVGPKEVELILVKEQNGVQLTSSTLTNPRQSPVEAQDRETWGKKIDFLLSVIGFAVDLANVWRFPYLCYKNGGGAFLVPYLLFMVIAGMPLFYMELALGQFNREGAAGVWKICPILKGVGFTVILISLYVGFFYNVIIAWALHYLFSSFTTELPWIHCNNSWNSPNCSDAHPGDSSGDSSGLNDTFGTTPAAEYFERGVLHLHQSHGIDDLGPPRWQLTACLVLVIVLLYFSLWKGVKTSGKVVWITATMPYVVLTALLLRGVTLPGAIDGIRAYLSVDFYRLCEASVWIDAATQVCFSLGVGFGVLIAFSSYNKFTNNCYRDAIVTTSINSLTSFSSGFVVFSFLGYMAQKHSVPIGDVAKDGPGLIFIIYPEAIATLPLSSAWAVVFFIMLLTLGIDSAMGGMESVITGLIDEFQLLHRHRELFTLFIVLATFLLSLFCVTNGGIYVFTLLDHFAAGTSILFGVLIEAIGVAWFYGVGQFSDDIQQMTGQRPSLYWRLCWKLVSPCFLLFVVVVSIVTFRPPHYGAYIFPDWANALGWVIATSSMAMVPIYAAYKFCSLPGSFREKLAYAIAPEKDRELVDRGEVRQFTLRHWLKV

[24] = target: Sodium-dependent noradrenaline transporter (Homo sapiens) (UniProt P23975); experiment: Compound was tested for binding affinity against noradrenergic uptake
Chain of Sodium-dependent noradrenaline transporter (Homo sapiens) (P23975 whole entry): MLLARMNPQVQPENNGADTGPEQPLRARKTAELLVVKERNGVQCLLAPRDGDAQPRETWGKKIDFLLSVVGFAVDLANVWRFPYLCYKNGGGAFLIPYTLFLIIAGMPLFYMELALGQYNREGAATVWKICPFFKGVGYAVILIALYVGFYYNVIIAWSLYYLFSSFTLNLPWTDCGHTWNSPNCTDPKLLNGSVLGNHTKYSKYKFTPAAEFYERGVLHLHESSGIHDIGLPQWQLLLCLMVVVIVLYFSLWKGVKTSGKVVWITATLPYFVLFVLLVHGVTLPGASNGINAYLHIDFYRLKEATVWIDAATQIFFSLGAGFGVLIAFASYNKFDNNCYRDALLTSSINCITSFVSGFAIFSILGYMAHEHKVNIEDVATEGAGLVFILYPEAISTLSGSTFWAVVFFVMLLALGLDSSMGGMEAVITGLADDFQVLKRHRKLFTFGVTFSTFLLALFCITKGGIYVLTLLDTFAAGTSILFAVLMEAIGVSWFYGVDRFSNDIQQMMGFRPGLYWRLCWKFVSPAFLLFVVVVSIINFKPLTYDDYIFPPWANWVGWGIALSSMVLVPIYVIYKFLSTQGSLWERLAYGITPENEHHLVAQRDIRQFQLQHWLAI

[25] = Compound was tested for binding affinity against 5-HT1 receptor

SMILES: c1ccc(CN2CCN(c3nc4sccc4n4cccc34)CC2)cc1
- -Log IC50 [1]: 8.34

SMILES: NCCO/N=C1\c2ccccc2-n2cccc21
- -Log IC50 [1]: 6.66

SMILES: CN(CCO/N=C1\c2sccc2-n2cccc21)Cc1ccccc1
- -Log IC50 [1]: 7.63

SMILES: Cc1csc2c1-n1cccc1/C2=N/OCCCN(C)Cc1ccccc1
- -Log IC50 [1]: 7.47

SMILES: CN1CCCC1CCO/N=C1\c2ccccc2-n2cccc21 (configuration not stated)
- -Log IC50 [1]: 7.85

SMILES: Cc1csc2c1-n1cccc1/C2=N/OCCCN(C)C
- -Log IC50 [1]: 8.6

SMILES: c1ccc(CNCCO/N=C2\c3ccccc3-n3cccc32)cc1
- -Log IC50 [1]: 6.54

SMILES: CN(C)CCO/N=C1\c2ccccc2-n2cccc21
- -Log IC50 [1]: 8.24

SMILES: Cc1csc2c1-n1cccc1/C2=N/OCCN1CCCCC1
- -Log IC50 [1]: 8.4

SMILES: CN(C)CCO/N=C1\c2cc(Cl)ccc2-n2cccc21
- -Log IC50 [1]: 7.06

SMILES: NCCc1c[nH]c2ccc(O)cc12
- Agonist activity [2]: 41
- Agonist activity [3]: 90
- Agonist activity [4]: 0
- Agonist activity [5]: 76

SMILES: Cc1csc2c1-n1cccc1/C2=N/OCCN(C)Cc1ccccc1
- -Log IC50 [1]: 8.16

SMILES: Cc1csc2c1-n1cccc1/C2=N/OCCN(C)C
- -Log IC50 [6]: 6.92
- IC50 [7]: 5750 nM
- IC50 [8]: 2690 nM
- -Log IC50 [9]: 5.5
- IC50 [10]: 2140 nM
- IC50 [11]: 479 nM
- Activity [12]: 0
- Activity [13]: 37
- Activity [14]: 0
- Activity [15]: 73
- Activity [16]: 64
- Activity [17]: 16
- Activity [18]: 0
- Displacement [19]: 0%
- IC50 [20]: 871 nM
- -Log IC50 [21]: 9.1
- Displacement [22]: 0%
- Affinity [23]: 5.28%
- Affinity [24]: 6%
- -Log IC50 [25]: 5.66

SMILES: Cc1ccc(-c2csc3c2-n2cccc2/C3=N/OCCN)cc1
- -Log IC50 [1]: 6.66

SMILES: CN(C)CCO/N=C1\c2sccc2-n2cccc21
- -Log IC50 [1]: 8.46

SMILES: Cc1csc2c1-n1cccc1/C2=N/OCCC1CCCN1C (configuration not stated)
- -Log IC50 [1]: 8.7

SMILES: Cc1csc2c1-n1cccc1/C2=N/OCCN1CCCC1
- -Log IC50 [1]: 8.7

SMILES: CCN(CC)CCO/N=C1\c2sccc2-n2cccc21
- -Log IC50 [1]: 8.3

SMILES: Cc1csc2c1-n1cccc1/C2=N/OCCNCc1ccccc1
- -Log IC50 [1]: 7.54

SMILES: Cc1csc2c1-n1cccc1/C2=N/OCCN
- -Log IC50 [1]: 7.62
